In one series the test system is mice. The series can be described thus: Chronic toxicity in mice, up to 270 days. Format: in vivo. Conditions: tested up to 270 days on mice.
Series [1] relates to EAE (experimental autoimmune encephalomyelitis) model. Nature of the series: EAE (experimental autoimmune encephalomyelitis) rat model, clinical score. Format: in vivo, Lewis rats. Conditions: for onset is delayed / recovery starts earlier: Figure 2, versus control.
The nature of a further series: Acute toxicity in rat. Conditions: in vivo.
Series [2] can be described thus: Acute toxicity in rabbit, cutaneous. The conditions noted are these: in vivo, topical or ocular, read-out: NOEL (No Observable Effect Level).

Turning to `Cc1cc2nc3c4ccccc4n(CCN(C)C)c3nc2cc1C` [B-220], the chronic toxicity entry in the series with mice is reported as “has not induced toxicity”. Further, in series [1] (Figure 1, 6 mg/animal daily, clinical score scale 0-5, versus negative control), the “reduces the CNS symptoms” value is 2/3. In addition, the onset is delayed is reported as about 2 days in series [1] (6 mg/animal) and about 4 days in series [1] (12 mg/animal). For the same compound, the recovery starts earlier in series [1] (6 mg/animal) was about 2 days; in series [1] (12 mg/animal) it was about 3 days. For the same compound, the NOAEL in the series “Acute toxicity in rat” (intravenous, read-out: NOEL (No Observable Effect Level)) worked out at 12.5 mg/kg; in series [2], 200 mg/kg. In addition, the values for the LD50 in the series “Acute toxicity in rat” (iv) and in the series “Acute toxicity in rat” (po) were over 100 mg/kg and over 800 mg/kg, respectively.

Usually LD50 stands for the dose at which mortality reaches 50%.

Values taken from patent EP1261344B1, “USE OF INDOLOQUINOXALINES FOR THE TREATMENT OF MULTIPLE SKLEROSIS” (OxyPharma AB, priority 2000, dated 2001).
